# Results: US9617289B2, “RSV antiviral compounds” (JANSSEN R&D IRELAND, priority 2012, dated 2017)
# Where a name gives a salt, the structure may show the parent alone.
# System: rgRSV224 virus
# Experiment: Antiviral activity: inhibition of rgRSV224 (GFP-expressing RSV) replication in HeLa cells
# Type: cell-based, respiratory syncytial virus
# Conditions: human respiratory syncytial virus, HeLa, 72 h, read-out: RSV-wt_pEC50, rgRSV224 (MOI=0.02) in HeLa cells, GFP expression three days post-virus exposure
# Description: Black 96-well clear-bottom microtiter plates (Corning, Amsterdam, The Netherlands) were filled in duplicate using a customized robot system with serial 4-fold dilutions of compound in a final volume of 50 μl culture medium [RPMI medium without phenol red, 10% FBS, 0.04% gentamycin (50 mg/ml) and 0.5% DMSO]. Then, 100 μl of a HeLa cell suspension (5×10^4 cells/ml) in culture medium was added to each well followed by the addition of 50 μl rgRSV224 (MOI=0.02) virus in culture medium using a multidrop dispenser (Thermo Scientific, Erembodegem, Belgium). rgRSV224 virus is an engineered virus that includes an additional GFP gene (Hallak et al, 2000) and was in-licensed from the NIH (Bethesda, Md., USA). Medium, virus- and mock-infected controls were included in each test. Cells were incubated at 37° C. in a 5% CO2 atmosphere. Three days post-virus exposure, viral replication was quantified by measuring GFP expression in the cells by a MSM laser microscope (Tibotec, Beerse, Belgium). The EC50 was defined as the 50% inhibitory concentration for GFP expression. In parallel, compounds were incubated for three days in a set of white 96-well microtitier plates (Corning) and the cytotoxicity of compounds in HeLa cells was determined by measuring the ATP content of the cells using the ATPlite kit (PerkinElmer, Zaventem, Belgium) according to the manufacturer's instructions. The CC50 was defined as the 50% concentration for cytotoxicity. SI is calculated as CC50/EC50.
row,SMILES,EC50 [nM]
1,N#CCCCn1c(CN2C(=O)C3(CN(S(=O)(=O)c4cccs4)C3)c3ccccc32)nc2cc(Cl)ccc21 [Compound 91],0.234
2,"N#CCCCn1c(CN2C(=O)C3(CN(C(=O)OC4COC4)C3)c3ccccc32)nc2cc(Cl)ccc21 [Compound 92, Oxetan-3-yl 1′-{[5-chloro-1-(3-cyanopropyl)-1H-benzimidazol-2-yl]methyl}-2′-oxo-1′,2′-dihydro-1H-spiro[azetidine-3,3′-indole]-1-carboxylate]",0.0692
3,"N#CCCCn1c(CN2C(=O)C3(CN(S(=O)(=O)c4ccc(F)cc4)C3)c3ccccc32)nc2cc(Cl)ccc21 [Compound 93, 4-[5-Chroro-2-({1-[(4-fluorophenyl)sulfonyl]-2′-oxospiro-[azetidine-3,3′-indol]-1′(2′H)-yl}methyl)-1H-benzimidazol-1-yl]butanenitrile]",1.62

# Same assay, conditions: human respiratory syncytial virus, HeLa, 72 h, read-out: pEC50, rgRSV224 (MOI=0.02) in HeLa cells, GFP expression three days post-virus exposure (converted)
row,SMILES,EC50 [nM]
1,"O=C1N(Cc2nc3cc(Cl)ccc3n2CCCC(F)(F)F)c2ccccc2C12CCN(Cc1ccccc1)CC2 [Compound 51, 1′-benzyl-1-((5-chloro-1-(4,4,4-trifluorobutyl)-1H-benzo[d]-imidazol-2-yl)methyl)spiro[indoline-3,4′-piperidin]-2-one]",63.1
2,"O=C1N(Cc2nc3cc(Cl)ccc3n2CCCC(F)(F)F)c2ccccc2C12CCOCC2 [Compound 52, 1-((5-chloro-1-(4,4,4-trifluorobutyl)-1H-benzo[d]imidazol-2-yl)methyl)-2′,3′,5′,6′-tetrahydrospiro[indoline-3,4′-pyran]-2-one]",2.51
3,"CC(C)(C)OC(=O)N1CCC2(CC1)C(=O)N(Cc1nc3cc(Cl)ccc3n1CCCC#N)c1cnccc12 [Compound 53, tert-butyl 1′-((5-chloro-1-(3-cyanopropyl)-1H-benzo[d]-imidazol-2-yl)methyl)-2′-oxo-1′,2′-dihydrospiro[piperidine-4,3′-pyrrolo[2,3-c]pyridine]-1-carboxylate]",< 0.158
4,"CS(=O)(=O)CCCn1c(CN2C(=O)C3(CCCC3)c3ccncc32)cc2cc(Cl)ccc21 [Compound 54, 1′-({5-chloro-1-[3-(methylsulfonyl)propyl]-1H-indol-2-yl}methyl)spiro [cyclopentane-1,3′-pyrrolo[2,3-c]pyridin]-2′(1′H)-one]",1.58
5,CS(=O)(=O)CCCn1c(CN2C(=O)C3(CCOCC3)c3cnccc32)cc2cc(Cl)ccc21 [Compound 57],83.2
6,"CC(C)(C)OC(=O)N1CC2(C1)C(=O)N(Cc1cc3cc(Cl)ccc3n1CCCC#N)c1ccccc12 [Compound 58, tert-butyl 1′-{[5-chloro-1-(3-cyanopropyl)-1H-indol-2-yl]-methyl}-2′-oxo-1′,2′-dihydro-1H-spiro[azetidine-3,3′-indole]-1-carboxylate]",< 0.2
7,"N#CCCCn1c(CN2C(=O)C3(CNC3)c3ccccc32)cc2cc(Cl)ccc21 [Compound 59, 4-{5-chloro-2-[(2′-oxospiro[azetidine-3,3′-indol]-1′(2′H )-yl)-methyl]-1H-indol-1-yl}butanenitrile]",5.01
8,"COC(=O)N1CC2(C1)C(=O)N(Cc1cc3cc(Cl)ccc3n1CCCC#N)c1ccccc12 [Compound 60, 1′-{[5-chloro-1-(3-cyanopropyl)-1H-indol-2-yl]methyl}-2′-oxo-1′,2′-dihydro-1H-spiro[azetidine-3,3′-indole]-1-carboxylate]",0.251
9,"N#CCCCn1c(CN2C(=O)C3(CN(S(=O)(=O)C4CC4)C3)c3ccccc32)cc2cc(Cl)ccc21 [Compound 61, 4-(5-chloro-2-{[1-(cyclopropylsulfonyl)-2′-oxospiro-[azetidine-3,3′-indol]-1′(2′H)-yl]methyl}-1H-indol-1-yl)-butanenitrile]",0.398
10,"CC(C)(C)OC(=O)N1CCC2(CC1)C(=O)N(Cc1cc3cc(Cl)ccc3n1CCCC#N)c1cnccc12 [Compound 63, tert-butyl 1′-((5-chloro-1-(3-cyanopropyl)-1H-indol-2-yl)-methyl)-2′-oxo-1′,2′-dihydrospiro[piperidine-4,3′-pyrrolo-[2,3-c]pyridine]-1-carboxylate]",0.158
11,"CC(=O)N1CCC2(CC1)C(=O)N(Cc1cc3cc(Cl)ccc3n1CCCC#N)c1cnccc12 [Compound 64, 4-(2-((1-acetyl-2′-oxospiro[piperidine-4,3′-pyrrolo[2,3-c]-pyridin]-1′(2′H)-yl)methyl)-5-chloro-1H-indol-1-yl)butane-nitrile]",0.251
12,"O=C1N(Cc2nc3nc(Cl)ccc3n2CCCC(F)(F)F)c2cnccc2C12CCCC2 [Compound 65, 1′-((5-chloro-1-(4,4,4-trifluorobutyl)-1H-imidazo[4,5-b]-pyridin-2-yl)methyl)spiro[cyclopentane-l,3′-pyrrolo[2,3-c]-pyridin]-2′(1′H)-one]",0.631
13,"CC(C)(C)OC(=O)N1CCC2(CC1)C(=O)N(Cc1nc3ncccc3n1CCCC(F)(F)F)c1cnccc12 [Compound 66, tert-butyl-2′-oxo-1′-((1-(4,4,4-trifluorobutyl)-1H-imidazo-[4,5-b]pyridine-2-yl)methyl)-1′,2′-dihydrospiro[piperidine-4,3′-pyrrolo[2,3-c]pyridine]-1-carboxylate]",3.16
14,"CC(C)(C)OC(=O)N1CCC2(CC1)C(=O)N(Cc1nc3nc(Cl)ccc3n1CCCC(F)(F)F)c1cnccc12 [Compound 68, tert-butyl-1′-((5-chloro-1-(4,4,4-trifluorobutyl)-1H-imidazo-[4,5-b]pyridin-2-yl)methyl)-2′-oxo-1′,2′-dihydrospiro-[piperidine-4,3′-pyrrolo[2,3-c]pyridine]-1-carboxylate]",0.501
15,"CC(C)(C)OC(=O)N1CCC2(CC1)C(=O)N(Cc1cc3nc(Cl)ccc3n1CCCCF)c1cnccc12 [Compound 69, tert-butyl 1′-((5-chloro-1-(4-fluorobutyl)-1H-pyrrolo[3,2-b]-pyridin-2-yl)methy)-2′-oxo-1′,2′-dihydrospiro[piperidine-4,3′-pyrrolo[2,3-c]pyridine]-1-carboxylate]",5.01
16,"CC(C)(O)C(=O)N1CCC2(CC1)C(=O)N(Cc1cc3cc(Cl)ccc3n1CCCS(C)(=O)=O)c1cnccc12 [Compound 74, 1′-((5-chloro-1-(3-(methylsulfonyl)propyl)-1H-indol-2-yl)-methyl)-1-(2-hydroxy-2-methylpropanoyl)spiro[piperidine-4,3′-pyrrolo[2,3-c]pyridin]-2′(1′H)-one]",0.2
17,COC(=O)N1CCC2(CC1)C(=O)N(Cc1cc3cc(Cl)ccc3n1CCCC#N)c1cnccc12 [Compound 76],< 0.158
18,"CC(C)OC(=O)N1CCC2(CC1)C(=O)N(Cc1cc3cc(Cl)ccc3n1CCCC#N)c1cnccc12 [Compound 77, isopropyl 1′-((5-chloro-1-(3-cyanopropyl)-1H-indol-2-yl)-methyl)-2′-oxo-1′,2′-dihydrospiro[piperidine-4,3′-pyrrolo-[2,3-c]pyridine]-1-carboxylate]",< 0.158
19,"N#CCCCn1c(CN2C(=O)C3(CCNCC3)c3ccncc32)cc2cc(Cl)ccc21 [Compound 78, 4-(5-chloro-2-((2′-oxospiro[piperidine-4,3′-pyrrolo[2,3-c]-pyridin]-1′(2′H)-yl)methyl)-1H-indol-1-yl)butanenitrile hydrochloride]",0.631
20,"N#CCCCn1c(CN2C(=O)C3(CCNCC3)c3ccncc32)nc2cc(Cl)ccc21 [Compound 84, 4-(5-chloro)-2-((2′-oxospiro[piperidine-4,3′-pyrrolo[2,3-c]-pyridin]-1′(2′H)-yl)methyl)-1H-benzo[d]imidazol-1-yl)butanenitrile hydrochloride]",0.631
21,"CC(C)(O)C(=O)N1CCC2(CC1)C(=O)N(Cc1cc3cc(Cl)ccc3n1CCCC#N)c1cnccc12 [Compound 86, 4-(5-chloro-2-((1-(2-hydroxy-2-methylpropanoyl)-2′-oxospiro[piperidine-4,3′-pyrrolo[2,3-c]pyridin]-1′(2′H)-yl)methyl)-1H-indol-1-yl)butanenitrile]",< 0.158
22,"CC(=O)N1CC2(C1)C(=O)N(Cc1nc3cc(Cl)ccc3n1CCCC#N)c1ccccc12 [Compound 88, 4-(2-((1-acetyl-2′-oxospiro[azetidine-3,3′-indolin]-1′-yl)-methyl)-5-chloro-1H-benzo[d]imidazol-1-yl)butanenitrile]",0.398
23,"N#CCCCn1c(CN2C(=O)C3(CCN(S(N)(=O)=O)CC3)c3ccncc32)nc2cc(Cl)ccc21 [Compound 89, 1′-((5-chloro-1-(3-cyanopropyl)-1H-benzo[d]imidazol-2-yl)-methyl)-2′-oxo-1′,2′-dihydrospiro[piperidine-4,3′-pyrrolo-[2,3-c]pyridine]-1-sulfonamide]",0.0794

# Same assay, conditions: rgRSV224 (MOI=0.02) in HeLa cells, GFP expression three days post-virus exposure
row,SMILES,pEC50
1,"O=C1N(Cc2nc3nc(Cl)ccc3n2CCCC(F)(F)F)c2cnccc2C12CCOCC2 [Compound 67, 1′-((5-chloro-1-(4,4,4-trifluorobutyl)-1H-imidazo[4,5-b]-pyridin-2-yl)methyl)-2,3,5,6-tetrahydrospiro[pyran-4,3′-pyrrolo[2,3-c]pyridin]-2′(1′H)-one]",10.3
